From publication PMC9731865, “Gambogic acid and juglone inhibit RNase P through distinct mechanisms” (The Journal of Biological Chemistry, 2022)
Where two headings read alike, the source gives them in different places.

Assays:
PRORP1 wildtype = target: T1, PRORP1 wildtype (Arabidopsis thaliana, UniProt Q66GI4); assay: Time-dependent inactivation of PRORP1 by juglone (varying preincubation time); assay type: biochemical, A. thaliana; settings: for kinact/KI: wildtype PRORP1, 0.3 nM PRORP1, 250 nM pre-tRNA, 22 °C
T1 construct: made in house
T1 sequence (Q66GI4 77-572): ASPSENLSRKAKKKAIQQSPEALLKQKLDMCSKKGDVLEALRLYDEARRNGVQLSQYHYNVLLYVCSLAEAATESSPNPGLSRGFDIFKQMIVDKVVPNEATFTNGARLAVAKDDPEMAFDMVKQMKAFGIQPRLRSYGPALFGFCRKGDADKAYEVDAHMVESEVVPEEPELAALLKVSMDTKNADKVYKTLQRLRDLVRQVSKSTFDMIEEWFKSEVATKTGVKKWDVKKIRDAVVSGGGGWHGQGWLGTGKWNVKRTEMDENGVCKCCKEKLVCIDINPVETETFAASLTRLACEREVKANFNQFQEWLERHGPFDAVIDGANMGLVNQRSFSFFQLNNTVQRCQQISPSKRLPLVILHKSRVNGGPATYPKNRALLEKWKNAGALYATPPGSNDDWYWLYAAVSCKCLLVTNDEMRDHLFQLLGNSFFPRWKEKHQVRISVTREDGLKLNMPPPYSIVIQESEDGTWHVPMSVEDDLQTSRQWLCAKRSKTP
Experimental: A global fit of the data (Equations 5 and 6) was used to calculate kinact/KI. […] The errors shown are the standard errors obtained from fitting Equation 5 to the data in A independently. Reactions were performed with 0.3 nM PRORP1, 250 nM pre-tRNA containing 40 nM Fl-pre-tRNA, at 22 °C, in 30 mM MOPS, pH 7.8, 1 mM TCEP, 5 mM MgCl2, 500 nM (12 μg/ml) yeast tRNA, 5 mM spermidine, 6.65 μg/ml BSA, and 0.01% NP-40. Data are fit to determine kinact/KI.
For the analysis of juglone, PRORP1 activity was measured with varying preincubation time and juglone concentration. Varying concentrations of juglone were preincubated with a 35 μl of PRORP1 from 2 min to 4 h in 30 mM MOPS pH 7.8, 5 mM MgCl2, 100 mM NaCl, 1 mM TCEP, 500 nM (12 μg/ml) yeast tRNA^mix, 5 mM spermidine, 6.65 μg/ml BSA, and 0.01% NP-40. The concentration of DMSO in each reaction was held constant at 1%. Reactions were initiated by addition of 5 μl of substrate for a final working concentration of 0.3 nM PRORP1 and 250 nM pre-tRNA, a substrate concentration well below the KM value. The dependence of the initial velocity on the preincubation time was fit to a single exponential decay equation (Equation 5) to determine kinact,app at each juglone concentration. The values for kinact,app for various juglone concentrations (represented by [I]) were fit with Equation 6 to determine kinact/KI, assuming a 2-step inactivation mechanism.(5) Activity(%)=Ae^−(kinact,app)t (6) kinact,app=kinact/KI(KI[I]/KI+[I])

B. subtilis RNase P = B. subtilis RNase P activity assay (FP, real-time); assay type: biochemical; settings: ratio of IC50 values
Experimental: Figure 4 Gambogic acid and juglone inhibit A. thaliana PRORP1 (green), human MRPP1/2/3 (red), and B. subtilis RNase P (blue). Compounds gambogic acid (A) and juglone (B) were incubated with enzyme at double the reaction concentration for 30 min prior to the addition of an equal volume of substrate to initiate the reaction. PRORP1 reactions (shown in green) were performed with 0.3 nM PRORP1 and 800 nM pre-tRNA containing 40 nM Fl-pre-tRNA at 25 °C in 30 mM MOPS pH 7.8, 5 mM MgCl2, 100 mM NaCl, 1 mM TCEP, 500 nM (12 μg/ml) yeast tRNA, 5 mM spermidine, 6.65 μg/ml BSA, and 0.01% NP-40. MRPP1/2/3 reactions (shown in red) were performed using 50 nM MRPP3, 500 nM MRPP1/2, 500 nM pre-tRNA containing 40 nM Fl-pre-tRNA at 37 °C in 50 mM MOPS (pH 7.8), 1 mM TCEP, 4.5 mM MgCl2, and 100 mM NaCl. B. subtilis RNase P reactions (shown in blue) were performed using 20 nM RNase P and 500 nM pre-tRNA containing 40 nM Fl-pre-tRNA at 37 °C in 50 mM Tris, pH 7.2, 5 mM MgCl2, 100 mM KCl, 500 nM (12 μg/ml) yeast tRNA, 20 mM dithiothreitol (DTT), 10 mM spermidine, and 0.01% NP-40. Equation 1 was fit to each dataset.
The inhibition of B. subtilis RNase P activity by gambogic acid and juglone was measured using a previously developed FP assay in real-time.^25 Reactions were performed under multiple turnover conditions using 20 nM RNase P and 500 nM Fl-pre-tRNA^Asp in 50 mM Tris (pH 7.2), 5 mM MgCl2, 100 mM KCl, 500 nM (12 μg/ml) yeast tRNA^mix, 20 mM dithiothreitol, 10 mM spermidine, and 0.01% NP-40 at 37 °C.

| Compound | Ki (PRORP1 wildtype) | decrease in initial activity (extrapolated to 0 min preincubation) (PRORP1 wildtype; 10 μM juglone (highest concentration)) | Hill coefficient n of the fit to 0-min preincubation data (PRORP1 wildtype; Equation 1) | mode of inhibition of PRORP1 (PRORP1 wildtype; inhibition depends on preincubation time) | kinact/KI (PRORP1 wildtype; read-out: kinact/KI, global fit using Equations 5 and 6 (converted)) | kinact/KI (PRORP1 wildtype; read-out: kinact/KI, hyperbolic fit using Equation 6 (converted)) | fold less potent against B. subtilis RNP RNase P than against PRORP1 and MRPP1/2/3 (B. subtilis RNase P) | fold less potent against B. subtilis RNP RNase P than against PRORP1 and MRPP1/2/3 (B. subtilis RNase P; listed as Gambogic acid) |
| --- | --- | --- | --- | --- | --- | --- | --- | --- |
| O=C1C=CC(=O)c2c(O)cccc21 [juglone, 5-hydroxy-1,4-naphthalenedione] | 12.5 ± 2.7 µM | 50% | 1 | time-dependent inhibitor | 16.7 M⁻¹ s⁻¹ | 16.7 M⁻¹ s⁻¹ | – | – |
| CC(C)=CCC[C@]1(C)C=Cc2c(O)c3c(c(CC=C(C)C)c2O1)O[C@]12C(=C[C@@H]4C[C@H]1C(C)(C)O[C@@]2(C/C=C(/C)C(=O)O)C4=O)C3=O [gambogic acid] | – | – | – | – | – | – | at least 50 fold | more than 50 fold |
